Assay results reported in ChEMBL document CHEMBL1152906, “Synthesis and evaluation of carbamate prodrugs of SQ109 as antituberculosis agents” (Bioorg Med Chem Lett, 2009).
Several values for one entry are separate records, joined by “and”; a condition that tells them apart may be missing. Equal values may be shown once. Blank lines part the entries; values can stand above or below the molecule they belong to.

Legend:
[1] = Ratio of drug level in rat lung to plasma assessed as N-Geranyl-N0-(2-adamantyl)ethane-1,2-diamine level at 13 mg/kg, po after 4 hrs; format: ADME, organism-based; design: dose 13 mg/kg, route oral; conditions: other tissue
Lung [2] = assay: Drug uptake in rat lung assessed as N-Geranyl-N0-(2-adamantyl)ethane-1,2-diamine level at 13 mg/kg, po after 4 hrs; format: ADME, organism-based; design: dose 13 mg/kg, route oral; conditions: in vivo
Lung [3] = assay: Drug uptake in rat lung assessed as N-Geranyl-N0-(2-adamantyl)ethane-1,2-diamine level at 13 mg/kg, po after 10 hrs; format: ADME, organism-based; design: dose 13 mg/kg, route oral; conditions: in vivo
Rattus norvegicus [4] = assay: Tmax in rat assessed as N-Geranyl-N0-(2-adamantyl)ethane-1,2-diamine level at 13 mg/kg, po; format: ADME, organism-based; design: dose 13 mg/kg, route oral; conditions: in vivo
Rattus norvegicus [5] = assay: Cmax in rat assessed as N-Geranyl-N0-(2-adamantyl)ethane-1,2-diamine level at 13 mg/kg, po; format: ADME, organism-based; design: dose 13 mg/kg, route oral; conditions: in vivo
Rattus norvegicus [6] = assay: Oral bioavailability in rat assessed as N-Geranyl-N0-(2-adamantyl)ethane-1,2-diamine level at 13 mg/kg; format: ADME, organism-based; conditions: in vivo
Rattus norvegicus [7] = assay: Clearance in rat assessed as N-Geranyl-N0-(2-adamantyl)ethane-1,2-diamine level at 13 mg/kg, po; format: ADME, organism-based; design: dose 13 mg/kg, route oral; conditions: in vivo
Rattus norvegicus [8] = assay: AUC(0 to 24 hrs) in rat assessed as N-Geranyl-N0-(2-adamantyl)ethane-1,2-diamine level at 13 mg/kg, po; format: ADME, organism-based, Plasma; design: time < 24 hr, dose 13 mg/kg, route oral; conditions: in vivo
Rattus norvegicus [9] = assay: Half life in rat assessed as N-Geranyl-N0-(2-adamantyl)ethane-1,2-diamine level at 13 mg/kg, po; format: ADME, organism-based; design: dose 13 mg/kg, route oral; conditions: in vivo
[10] = Stability of compound in Sorensens buffer at pH 7.4; format: physicochemical
[11] = Clearance in rat at 1.5 mg/kg, iv; format: ADME, organism-based; design: dose 1.5 mg/kg, route intravenous; conditions: in vivo
[12] = Clearance in rat at 13 mg/kg, po; format: ADME, organism-based; design: dose 13 mg/kg, route oral; conditions: in vivo
[13] = Oral bioavailability in dog; format: ADME, organism-based, Canis lupus familiaris; conditions: in vivo
[14] = AUC(0 to 24 hrs) in rat at 1.5 mg/kg, iv; format: ADME, organism-based; design: time < 24 hr, dose 1.5 mg/kg, route intravenous; conditions: plasma
[15] = Half life in rat at 13 mg/kg, po; format: ADME, organism-based; design: dose 13 mg/kg, route oral; conditions: in vivo
[16] = Tmax in rat at 13 mg/kg, po; format: ADME, organism-based; design: dose 13 mg/kg, route oral; conditions: in vivo
[17] = AUC(0 to 24 hrs) in rat at 13 mg/kg, po; format: ADME, organism-based; design: time < 24 hr, dose 13 mg/kg, route oral; conditions: plasma
[18] = Oral bioavailability in rat; format: ADME, organism-based; conditions: in vivo
[19] = Half life in rat at 1.5 mg/kg, iv; format: ADME, organism-based; design: dose 1.5 mg/kg, route intravenous; conditions: in vivo
[20] = Cmax in rat at 13 mg/kg, po; format: ADME, organism-based; design: dose 13 mg/kg, route oral; conditions: in vivo
[21] = Cmax in rat at 1.5 mg/kg, iv; format: ADME, organism-based; design: dose 1.5 mg/kg, route intravenous; conditions: in vivo
[22] = Oral bioavailability in rat at 13 mg/kg; format: ADME, organism-based; conditions: in vivo

Compound: CC(C)=CCC/C(C)=C/CN(CCNC1C2CC3CC(C2)CC1C3)C(=O)OCOC(=O)C(C)C.O=C(O)/C=C\C(=O)O (centres undefined)
- fold change (FC) [1]: 76 and 60
- Drug uptake (Lung [2]): 35.08 µg/g
- Drug uptake (Lung [3]): 29.03 µg/g
- Tmax (Rattus norvegicus [4]): 1 h
- Cmax (Rattus norvegicus [5]): 1309.3 ng/mL
- F (Rattus norvegicus [6]): 91.4%
- CL (Rattus norvegicus [7]): 41.5 mL/min/kg
- AUC (Rattus norvegicus [8]): 5441.2 ng·h/mL
- t1/2 (Rattus norvegicus [9]): 4.58 h

Compound: CC(C)=CCC/C(C)=C/CN(CCNC1C2CC3CC(C2)CC1C3)C(=O)OCOC(=O)C(C)(C)C.O=C(O)/C=C\C(=O)O (centres undefined)
- Tmax (Rattus norvegicus [4]): 1.4 h
- Cmax (Rattus norvegicus [5]): 585.6 ng/mL
- F (Rattus norvegicus [6]): 72.6%
- CL (Rattus norvegicus [7]): 50 mL/min/kg
- AUC (Rattus norvegicus [8]): 4224.8 ng·h/mL
- t1/2 (Rattus norvegicus [9]): 5.6 h

Compound: CC(C)=CCC/C(C)=C/CNCCNC1C2CC3CC(C2)CC1C3 (centres undefined) [SQ109]
- clearance [11]: 17.5 mL/min/kg
- CL/F [12]: 82.3 mL/min/kg
- bioavailability [13]: 3.8%
- AUC(0-t) at 24 h [14]: 1230 ng·h/mL
- half-life [15]: 3.71 h
- Tmax [16]: 0.75 h
- AUC(0-t) at 24 h [17]: 2330 ng·h/mL
- bioavailability [18]: 12%
- half-life [19]: 5.06 h
- Cmax [20]: 499 ng/mL
- Cmax [21]: 889 ng/mL
- bioavailability [22]: 21.9%

Other lines, results leading:

- Stability [10]: Unstable
Compound: CC(C)=CCC/C(C)=C/CN(CCNC1C2CC3CC(C2)CC1C3)C(=O)OC(C)OC(=O)C(C)(C)C.O=C(O)/C=C\C(=O)O (centres undefined)

- Stability [10]: Unstable
Compound: CC(C)=CCC/C(C)=C/CN(CCNC1C2CC3CC(C2)CC1C3)C(=O)OC(C)OC(=O)C(C)C.O=C(O)/C=C\C(=O)O (centres undefined)
